Values joined by “and” are separate entries in the source; they are usually repeats but may differ in a detail not shown here. Identical values can stand only once.
Test: Study of Composition-3 vs Januvia (Sitagliptin) vs Placebo in T2D adult patients with inadequate glycemic control, 04-week treatment
Type: in vivo, human
Protocol: A study of Composition-3 vs Januvia (Sitagliptin) vs Placebo in adult patients with inadequate glycemic control • 1. Composition-3—Oral insulin—8 mg • 2. Reference—Januvia (Sitagliptin)—100 mg • 3. Placebo
The pivotal study was involved 36 patients divided in to 3 groups of 12 each randomized to 1:1:1 into three cohorts dosed with 8 mg of Composition-3at night, Januvia 100 mg (Sitagliptin) at night and placebo at night.
Patient population-T2D adult patients above age of 21 years with inadequate glycemic control who were managing their condition with diet and metformin monotherapy.
• HbA1c ≥7.5% on metformin ≥500 mg daily • At time of randomization, patients were treated for their diabetes by diet, exercise, and metformin (≥500 mg/day; any type and regimen). […] A negative urine pregnancy test was obtained during Visit 2 and at Visit 4 (prior to randomization). • Males and females of childbearing potential used two methods of contraception (double barrier method), one of which must be an acceptable barrier method from the time of screening to the last study visit
• Patients who meet any of the following criteria was not eligible for this study. • Presence of any clinically significant endocrine disease according to the Investigator (euthyroid patients on replacement therapy was included if the dosage of thyroxine is stable for at least six weeks prior to Screening Visit). • Clinical diagnosis of Type 1 diabetes. • Presence or history of cancer within the past five years except for adequately treated localized basal cell skin cancer or in situ uterine cervical cancer. • Laboratory abnormalities at screening including: • 1. C-peptide <1.0 ng/mL. • 2. Positive pregnancy test in females of childbearing potential (at screening and start of run-in period). • 3. Abnormal serum thyrotropin (TSH) levels >1.5 times the upper limit of normal. • 4. Positive test for hepatitis B surface antigen and/or hepatitis C antibody. • 5. Positive test for HIV. • 6. Serum Cr >1.4 mg/dl in males, >1.3 mg/dl in females. • 7. Any relevant abnormality interfering with the efficacy or the safety assessments during study drug administration. • Use of the following medications: • 1. History of use of insulin for greater than one week in the last six months and any use of insulin in the last six weeks prior to randomization. • 2. Administration of anti-diabetic drugs other than metformin within four weeks prior to randomization visit. Administration of thyroid preparations or thyroxine within six weeks prior to screening visit. […] (Note: Alcohol abuse includes heavy alcohol intake as defined by >3 drinks per day or >14 drinks per week, or binge drinking). • Elevated liver enzymes (alanine transaminase (ALT), […], alkaline phosphatase) greater than two times the upper limit of normal at screening. • Very high triglyceride level (>500 mg/dL) at screening. • Any clinically significant electrocardiogram (ECG) abnormality at screening or cardiovascular disease. Clinically significant cardiovascular disease will include: • 1. History of stroke, transient ischemic attack, or myocardial infarction within six months prior to screening, • 2. History of or currently have New York Heart Associate Class II-IV heart failure prior to screening, or • 3. Uncontrolled hypertension defined as blood pressure ≥160 mmHg (systolic) or ≥100 mmHg (diastolic) at screening.
• The primary endpoint of the study was to compare the efficacy of Composition-3 to Sitagliptin & placebo in improving glycaemic control as assessed by A1c over a 04-week treatment period, with a secondary endpoint of comparing Composition-3 to Sitagliptin & placebo in change from baseline in FPG at week 04 • 1. Change from Baseline in Haemoglobin A1c (A1C) at Week 04 [Time Frame: Baseline and Week 04] A1C was measured as the percentage of glycosylated haemoglobin. Change in A1C following 04 weeks of therapy (i.e., A1C at Week 04 minus A1C at baseline) • 2. […]

N[C@@H](CC(=O)N1CCn2c(nnc2C(F)(F)F)C1)Cc1cc(F)c(F)cc1F [Sitagliptin]
Mean A1c (HbA1c) % week 04 (group mean n = 12, Week 04): 6.66% | Mean FPG (mg/dl) week 04 (group mean n = 12, Week 04): 160.53 mg/dL | % Improvement A1c (HbA1c) (group mean n = 12, Week 04 vs baseline): 14.7% | Mean A1c (HbA1c) % baseline (group mean n = 12, baseline): 7.81% | Mean FPG (mg/dl) baseline (group mean n = 12, baseline): 200.68 mg/dL | FPG (mg/dl) Week 04 (individual patient, Week 04, before breakfast): 155.06 mg/dl and 159.18 mg/dl and 156.1 mg/dl and 150.54 mg/dl and 158.1 mg/dl and 166.66 mg/dl and 157.66 mg/dl and 164.78 mg/dl (2×) and 182.58 mg/dl and 152.06 mg/dl and 158.54 mg/dl | A1c (HbA1c) % Week 04 (individual patient, Week 04, dosed orally at night): 6.6% (4×) and 6.8% (3×) and 6.5% (2×) and 6.4% (2×) and 7.3% | A1c (HbA1c) % Baseline (individual patient, baseline, T2D patients on metformin): 7.9% (2×) and 8% and 7.6% (2×) and 7.7% (3×) and 7.8% (3×) and 8.2% | FPG (mg/dl) Baseline (individual patient, baseline, before breakfast): 203.94 mg/dl (2×) and 207.5 mg/dl and 193.26 mg/dl (2×) and 196.82 mg/dl (3×) and 200.38 mg/dl (3×) and 214.62 mg/dl
